Measurements reported in patent publication US9850283B2, “Macrocyclic inhibitors of the PD-1/PD-L1 and CD80(B7-1)/PD-L1 protein/protein interactions” (BRISTOL-MYERS SQUIBB COMPANY, priority 2013, dated 2017).
Read-outs that look alike come from different tables or passages of the source. Positions of bridges follow the written chain, without caps; N, C: chain ends. Non-standard residues stand in square brackets, D forms with d. Residues, ends and D or L forms follow the SMILES beside them. ξ: configuration not given here. *: point of attachment. Bip(2'-Me) = Cc1ccccc1-c1ccc(C[C@H](N)C(=O)O)cc1; Trp(5-Cl) = N[C@@H](Cc1c[nH]c2ccc(Cl)cc12)C(=O)O; Phe(3-CF3) = N[C@@H](Cc1cccc(C(F)(F)F)c1)C(=O)O; Bip = N[C@@H](Cc1ccc(-c2ccccc2)cc1)C(=O)O; Cyclohexanecarbonyl = O=C(C1CCCCC1)*; Bta = N[C@@H](Cc1csc2ccccc12)C(=O)O; NMeNle = CCCC[C@H](NC)C(=O)O; ξR = N=C(N)NCCCC(N)C(=O)O; NMeA = CN[C@@H](C)C(=O)O; 2Furoyl = O=C(c1ccco1)*; Dab = NCC[C@H](N)C(=O)O; Dap = NC[C@H](N)C(=O)O; Bz = O=C(c1ccccc1)*; ξP = O=C(O)C1CCCN1; ξC = NC(CS)C(=O)O; ξS = NC(CO)C(=O)O; Sar = CNCC(=O)O

Experiments:
Human PD-L1/PD-1 = target: T1, Human PD-L1/PD-1 (Homo sapiens, UniProt Q9NZQ7); assay: HTRF PD-1-Ig/PD-L1-His binding assay (human PD-L1)
T1 construct: made in house; host or cells: HEK293T
In short: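 Soluble Fc-fused PD-1 and His-tagged PD-L1 (truncated before the transmembrane region) were combined in dPBS with 0.1% (w/v) BSA and 0.05% (v/v) Tween-20. Binding was read by HTRF using europium cryptate anti-Ig antibody (1 nM final) and APC anti-His antibody (20 nM final).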

[1] = target: T2, LK35.2-hPD-L1 cells / PE-labeled PD-1-Ig (Homo sapiens, UniProt Q9NZQ7); assay: LK35.2-hPD-L1 cell binding high-content screening assay; format: cell-based; conditions: cell line of CBA not given (LK35.2-hPD-L1 or 293T-hPD-L1)
T2 construct: expressed in transfected cells; host or cells: LK35.2 mouse B cell line
Description: LK35.2-hPD-L1 Cell Binding High-Content Screening Assay. Phycoerythrin (PE) was covalently linked to the Ig epitope tag of human PD-1-Ig and fluorescently-labeled PD-1-Ig was used for binding studies with a mouse B cell line (LK35.2) stably over-expressing human PD-L1 (LK35.2-hPD-L1). Briefly, 3×10^3 LK35.2-hPD-L1 cells were seeded into 384 well plates in 20 ul of RPMI supplemented with 10% fetal calf serum and cultured overnight. 125 nl of compound was added to cells, followed by 5 ul of PE-labeled PD-1-Ig (1 nM final), diluted in RPMI supplemented with 10% fetal calf serum, followed by incubation at 37° C. for 1 h. […] Cells were washed 3× in 100 ul of dPBS followed by final addition of 15 ul of dPBS. Data was collected and processed using a Cell Insight NXT High Content Imager and associated software.

[2] = HTRF IC50 cluster, cluster symbol
[3] = CBA IC50 cluster, cluster symbol
[4] = cluster symbol, read-out: HTRF IC50 cluster
[5] = cluster symbol, read-out: CBA IC50 cluster

T2 sequence (Q9NZQ7 19-290): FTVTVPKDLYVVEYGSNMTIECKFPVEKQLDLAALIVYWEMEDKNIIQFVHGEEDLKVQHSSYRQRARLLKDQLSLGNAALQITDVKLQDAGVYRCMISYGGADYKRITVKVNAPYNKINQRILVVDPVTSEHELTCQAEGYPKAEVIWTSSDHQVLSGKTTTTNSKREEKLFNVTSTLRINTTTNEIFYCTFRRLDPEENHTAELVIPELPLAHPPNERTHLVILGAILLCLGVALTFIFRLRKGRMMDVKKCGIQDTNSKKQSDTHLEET
T1 sequence (Q9NZQ7 with tags, fused parts or gaps): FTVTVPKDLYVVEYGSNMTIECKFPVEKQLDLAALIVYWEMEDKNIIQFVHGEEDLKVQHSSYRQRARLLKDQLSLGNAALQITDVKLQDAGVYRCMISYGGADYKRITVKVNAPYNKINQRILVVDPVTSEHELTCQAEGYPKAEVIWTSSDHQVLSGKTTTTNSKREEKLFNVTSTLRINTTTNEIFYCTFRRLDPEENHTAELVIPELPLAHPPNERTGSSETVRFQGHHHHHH

SMILES | IC50 (Human PD-L1/PD-1; [4]) [µM] | IC50 [1, 5] [µM] | other results
CCCC[C@H]1C(=O)N[C@@H](CCCNC(=N)N)C(=O)N[C@H](C(=O)NCC(N)=O)CSCC(=O)N[C@@H](Cc2ccccc2)C(=O)N(C)[C@@H](C)C(=O)N[C@@H](CC(N)=O)C(=O)N2CCC[C@H]2C(=O)N[C@@H](Cc2cnc[nH]2)C(=O)N[C@@H](CC(C)C)C(=O)N(C)CC(=O)N[C@@H](Cc2c[nH]c3ccccc23)C(=O)N[C@@H](CO)C(=O)N[C@@H](Cc2c[nH]c3ccccc23)C(=O)N[C@@H](CNC(=O)c2ccccc2)C(=O)N1C [Example 1013] ({CH2CO}-F[NMeA]NPHL[Sar]WSW[Dap](Bz)[NMeNle]RCG-NH2; thioether N-14) |  |  | IC50 (Human PD-L1/PD-1; [2]): > 0.0305 µM; IC50 [1, 3]: > 0.0743 µM
CCCC[C@H]1C(=O)N(C)[C@@H](CCCC)C(=O)N[C@@H](CCCNC(=N)N)C(=O)N[C@H](C(=O)NCC(N)=O)CSCC(=O)N[C@@H](Cc2ccc(O)cc2)C(=O)N(C)[C@@H](C)C(=O)N[C@@H](CC(N)=O)C(=O)N2CCC[C@H]2C(=O)N[C@@H](Cc2cnc[nH]2)C(=O)N[C@@H](CC(C)C)C(=O)N2CCC[C@H]2C(=O)N[C@@H](Cc2c[nH]c3ccccc23)C(=O)N[C@@H](CO)C(=O)N[C@@H](Cc2csc3ccccc23)C(=O)N1C [Example 1014] ({CH2CO}-Y[NMeA]NPHLPWS[Bta][NMeNle][NMeNle]RCG-NH2; thioether N-14) | 0.000385 to 0.00674 | 0.000158 to 0.00471 | 
CCCC[C@H]1C(=O)N(C)[C@@H](CCCC)C(=O)N[C@@H](CCCNC(=N)N)C(=O)NC(C(=O)NCC(N)=O)CSCC(=O)N[C@@H](Cc2ccccc2)C(=O)N(C)[C@@H](C)C(=O)N[C@@H](CC(N)=O)C(=O)N2CCC[C@H]2C(=O)N[C@@H](Cc2cnc[nH]2)C(=O)N[C@@H](CC(C)C)C(=O)N[C@@H](CCNC(=O)C2CCCCC2)C(=O)N[C@@H](Cc2c[nH]c3ccccc23)C(=O)N[C@@H](CO)C(=O)N[C@@H](Cc2c[nH]c3ccccc23)C(=O)N1C (some centres unmarked) [Example 1021] |  |  | IC50 (Human PD-L1/PD-1; read-out: HTRF IC50 value): 0.18 µM; IC50 ([1]; read-out: CBA IC50 value): 0.262 µM
CCCC[C@H]1C(=O)N(C)[C@@H](CCCC)C(=O)N[C@@H](CCCNC(=N)N)C(=O)N[C@H](C(=O)NCC(N)=O)CSCC(=O)N[C@@H](Cc2ccccc2)C(=O)N(C)[C@@H](C)C(=O)N[C@@H](CC(N)=O)C(=O)N2CCC[C@H]2C(=O)N[C@@H](Cc2c[nH]cn2)C(=O)N[C@@H](CC(C)C)C(=O)N[C@@H](CCNC(=O)c2ccccc2)C(=O)N[C@@H](Cc2c[nH]c3ccccc23)C(=O)N[C@@H](CO)C(=O)N[C@@H](Cc2c[nH]c3ccccc23)C(=O)N1C [Example 1022] ({CH2CO}-F[NMeA]NPHL[Dab](Bz)WSW[NMeNle][NMeNle]RCG-NH2; thioether N-14) |  |  | IC50 (Human PD-L1/PD-1; [2]): > 0.0305 µM; IC50 [1, 3]: > 0.0743 µM
CCCC[C@H]1C(=O)N(C)[C@@H](CCCC)C(=O)N[C@@H](CCCNC(=N)N)C(=O)N[C@H](C(=O)NCC(N)=O)CSCC(=O)N[C@@H](Cc2ccccc2)C(=O)N(C)[C@@H](C)C(=O)N[C@@H](CC(N)=O)C(=O)N2CCC[C@H]2C(=O)N[C@@H](Cc2c[nH]cn2)C(=O)N[C@@H](CC(C)C)C(=O)N[C@@H](CCNC(=O)c2ccco2)C(=O)N[C@@H](Cc2c[nH]c3ccccc23)C(=O)N[C@@H](CO)C(=O)N[C@@H](Cc2c[nH]c3ccccc23)C(=O)N1C [Example 1023] ({CH2CO}-F[NMeA]NPHL[Dab](2Furoyl)WSW[NMeNle][NMeNle]RCG-NH2; thioether N-14) | > 0.0305 | > 0.0743 | 
CCCC[C@H]1C(=O)N(C)[C@@H](CCCC)C(=O)NC(CCCNC(=N)N)C(=O)NC(C(=O)NCC(N)=O)CSCC(=O)N[C@@H](Cc2ccccc2)C(=O)N(C)[C@@H](C)C(=O)N[C@@H](CC(N)=O)C(=O)N2CCCC2C(=O)N[C@@H](Cc2cnc[nH]2)C(=O)N[C@@H](CC(C)C)C(=O)N(C)CC(=O)N[C@@H](Cc2c[nH]c3ccccc23)C(=O)NC(CO)C(=O)N[C@@H](Cc2ccc(-c3ccccc3C)cc2)C(=O)N1C (some centres unmarked) [Example 1030] ({CH2CO}-F[NMeA]N[ξP]HL[Sar]W[ξS][Bip(2'-Me)][NMeNle][NMeNle][ξR][ξC]G-NH2; thioether N-14) | > 0.0305 | > 0.0743 | 

Second part, led by results:

IC50 (Human PD-L1/PD-1; [4]) [µM] | IC50 [1, 5] [µM] | SMILES | other results
0.00676 to 0.0303 | 0.00478 to 0.0729 | CCCC[C@H]1C(=O)N(C)[C@@H](CCCC)C(=O)N[C@@H](CCCNC(=N)N)C(=O)N[C@H](C(=O)NCC(N)=O)CSCC(=O)N[C@@H](Cc2ccccc2)C(=O)N(C)[C@@H](C)C(=O)N[C@@H](CC(N)=O)C(=O)N2CCC[C@H]2C(=O)N[C@@H](Cc2cnc[nH]2)C(=O)N[C@@H](CC(C)C)C(=O)N2CCC[C@H]2C(=O)N[C@@H](Cc2c[nH]c3ccccc23)C(=O)N[C@@H](CO)C(=O)N[C@@H](Cc2csc3ccccc23)C(=O)N1C [Example 1015] ({CH2CO}-F[NMeA]NPHLPWS[Bta][NMeNle][NMeNle]RCG-NH2; thioether N-14) | 
0.000385 to 0.00674 | 0.000158 to 0.00471 | CCCC[C@H]1C(=O)N(C)[C@@H](CCCC)C(=O)N[C@@H](CCCNC(=N)N)C(=O)N[C@H](C(=O)NCC(N)=O)CSCC(=O)N[C@@H](Cc2ccc(O)cc2)C(=O)N(C)[C@@H](C)C(=O)N[C@@H](CC(N)=O)C(=O)N2CCC[C@H]2C(=O)N[C@@H](Cc2cnc[nH]2)C(=O)N[C@@H](CC(C)C)C(=O)N2CCC[C@H]2C(=O)N[C@@H](Cc2c[nH]c3ccccc23)C(=O)N[C@@H](CO)C(=O)N[C@@H](Cc2c[nH]c3ccccc23)C(=O)N1C [Example 1016] ({CH2CO}-Y[NMeA]NPHLPWSW[NMeNle][NMeNle]RCG-NH2; thioether N-14) | 
> 0.0305 | > 0.0743 | CCCC[C@H]1C(=O)N[C@@H](CCCNC(=N)N)C(=O)N[C@H](C(=O)NCC(N)=O)CSCC(=O)N[C@@H](Cc2ccccc2)C(=O)N(C)[C@@H](C)C(=O)N[C@@H](CC(N)=O)C(=O)N2CCC[C@H]2C(=O)N[C@@H](Cc2cnc[nH]2)C(=O)N[C@@H](CC(C)C)C(=O)N(C)CC(=O)N[C@@H](Cc2c[nH]c3ccccc23)C(=O)N[C@@H](CO)C(=O)N[C@@H](Cc2c[nH]c3ccccc23)C(=O)N[C@@H](CNC(=O)C2CCCCC2)C(=O)N1C [Example 1017] ({CH2CO}-F[NMeA]NPHL[Sar]WSW[Dap](Cyclohexanecarbonyl)[NMeNle]RCG-NH2; thioether N-14) | 
> 0.0305 | > 0.0743 | CCCC[C@H]1C(=O)N(C)[C@@H](CCCC)C(=O)N[C@@H](CCCNC(=N)N)C(=O)N[C@H](C(=O)NCC(N)=O)CSCC(=O)N[C@@H](Cc2ccccc2)C(=O)N(C)[C@@H](C)C(=O)N[C@@H](CC(N)=O)C(=O)N2CCC[C@H]2C(=O)N[C@@H](Cc2cnc[nH]2)C(=O)N[C@@H](CC(C)C)C(=O)N(C)CC(=O)N[C@@H](Cc2cccc(C(F)(F)F)c2)C(=O)N[C@@H](CO)C(=O)N[C@@H](Cc2c[nH]c3ccccc23)C(=O)N1C [Example 1018] ({CH2CO}-F[NMeA]NPHL[Sar][Phe(3-CF3)]SW[NMeNle][NMeNle]RCG-NH2; thioether N-14) | 
> 0.0305 | > 0.0743 | CCCC[C@H]1C(=O)N(C)[C@@H](CCCC)C(=O)N[C@@H](CCCNC(=N)N)C(=O)N[C@H](C(=O)NCC(N)=O)CSCC(=O)N[C@@H](Cc2ccccc2)C(=O)N(C)[C@@H](C)C(=O)N[C@@H](CC(N)=O)C(=O)N2CCC[C@H]2C(=O)N[C@@H](Cc2cnc[nH]2)C(=O)N[C@@H](CC(C)C)C(=O)N(C)CC(=O)N[C@@H](Cc2c[nH]c3ccc(Cl)cc23)C(=O)N[C@@H](CO)C(=O)N[C@@H](Cc2c[nH]c3ccc(Cl)cc23)C(=O)N1C [Example 1024] ({CH2CO}-F[NMeA]NPHL[Sar][Trp(5-Cl)]S[Trp(5-Cl)][NMeNle][NMeNle]RCG-NH2; thioether N-14) | 
> 0.0305 | > 0.0743 | CCCC[C@H]1C(=O)N(C)[C@@H](CCCC)C(=O)N[C@@H](CCCNC(=N)N)C(=O)N[C@H](C(=O)NCC(N)=O)CSCC(=O)N[C@@H](Cc2ccccc2)C(=O)N(C)[C@@H](C)C(=O)N[C@@H](CC(N)=O)C(=O)N2CCC[C@H]2C(=O)N[C@@H](Cc2cnc[nH]2)C(=O)N[C@@H](CC(C)C)C(=O)N(C)CC(=O)N[C@@H](Cc2c[nH]c3ccc(Cl)cc23)C(=O)N[C@@H](CO)C(=O)N[C@@H](Cc2c[nH]c3ccccc23)C(=O)N1C [Example 1026] ({CH2CO}-F[NMeA]NPHL[Sar][Trp(5-Cl)]SW[NMeNle][NMeNle]RCG-NH2; thioether N-14) | 
> 0.0305 | > 0.0743 | CCCC[C@H]1C(=O)N(C)[C@@H](CCCC)C(=O)NC(CCCNC(=N)N)C(=O)NC(C(=O)NCC(N)=O)CSCC(=O)N[C@@H](Cc2ccccc2)C(=O)N(C)[C@@H](C)C(=O)N[C@@H](CC(N)=O)C(=O)N2CCCC2C(=O)N[C@@H](Cc2cnc[nH]2)C(=O)N[C@@H](CC(C)C)C(=O)N(C)CC(=O)N[C@@H](Cc2c[nH]c3ccccc23)C(=O)NC(CO)C(=O)N[C@@H](Cc2ccc(-c3ccccc3)cc2)C(=O)N1C (some centres unmarked) [Example 1028] ({CH2CO}-F[NMeA]N[ξP]HL[Sar]W[ξS][Bip][NMeNle][NMeNle][ξR][ξC]G-NH2; thioether N-14) | 
